Patent publication US11827628B2, “Compositions and methods for inhibition of the JAK pathway” (Rigel Pharmaceuticals, Inc., priority 2005, dated 2023)

Experiments:
[1] = test system: up-regulation of ICAM-1 (CD54) by IFNγ in U937 human monocytic cells; assay: U937 IFNγ ICAM1 FACS Assay; format: cell-based; details: U937 cells stimulated with IFNγ; ICAM-1 expression by FACS; read-out: IC50, Example 44
Procedure, shortened: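 Readout was the geometric-mean APC anti-ICAM-1 signal by FACS on live U937 monocytic cells, with % live cells also recorded. Cells were exposed to compounds (8 points, 3-fold dilutions, duplicates) for 30 min at 37 °C before 18–24 h of IFNγ stimulation. EC50 values were computed from the dose curve.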

[2] = test system: IL-4 stimulated expression of CD23 in human Ramos B cells (JAK-1 and JAK-3); assay: Assay for Ramos B-Cell Line Stimulated with IL-4 (CD23 upregulation, FACS); format: cell-based; details: Ramos B-cell line stimulated with IL-4; CD23 expression by FACS; read-out: IC50, Example 41
Procedure, shortened: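 Read-out is surface CD23 by FACS after anti-CD23-PE staining, giving IC50. Before this, cells were stimulated 20-24 h with 50 units/mL (final) human IL-4, following 1 h compound or vehicle pre-treatment at 37 °C; log-phase Ramos B cells, 5×10^4 per well in 5% serum RPMI.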

Molecule | IC50 [1] | IC50 [2]
Cc1nc(COc2ccc(Nc3nc(Nc4ccc(S(N)(=O)=O)cc4)ncc3F)cc2)no1 [Compound I-275, N2-(4-Aminosulfonyl)phenyl-5-fluoro-N4-[4-(5-methyl-1,2,4-oxadiazol-3-yl)methoxy]phenyl-2,4-pyrimidinediamine] | 1900 nM | 223 nM
N#CCCc1ccc(Nc2nc(Nc3ccc(F)c(S(N)(=O)=O)c3)ncc2F)cc1 [III-16, N2-(3-Aminosulfonyl-4-fluorophenyl)-N4-[4-(cyanoethylene)phenyl]-5-fluoro-2,4-pyrimidinediamine] | 1800 nM | 273 nM
Cc1nnc(COc2ccc(Nc3nc(Nc4cccc(S(N)(=O)=O)c4)ncc3F)cc2)o1 [Compound I-277, N2-(3-aminosulfonylphenyl)-5-fluoro-N4-[4-(5-methyl-1,3,4-oxadiazol-2-yl)methyleneoxyphenyl]-2,4-pyrimidinediamine] | 1470 nM | 151 nM
N#CCCc1ccc(Nc2nc(Nc3cccc(S(N)(=O)=O)c3)ncc2F)cc1C(F)(F)F [III-31, N4-(4-Cyanoethylene-3-trifluoromethylphenyl)-5-fluoro-N2-(3-aminosulfonylphenyl)-2,4-pyrimidinediamine] | 1700 nM | 95.4 nM
COc1cc(Nc2ncc(F)c(Nc3ccc(OCC#N)cc3)n2)ccc1S(N)(=O)=O [Compound I-28, N2-(4-Aminosulfonyl-3-methoxyphenyl)-N4-(4-cyanomethoxy)phenyl-5-fluoro-2,4-pyrimidinediamine] | 1890 nM | 64.5 nM
Cc1cc(Nc2nc(Nc3ccc(S(N)(=O)=O)cc3)ncc2F)ccc1OCC#N [Compound I-22, N2-(4-Aminosulfonyl)phenyl-N4-(4-cyanomethoxy-3-methyl)phenyl-5-fluoro-2,4-pyrimidinediamine] | 4430 nM | 236 nM
N2-(3-Aminocarbonyl-5-methylphenyl)-5-fluoro-N2-[4-(1-methylpyrazol-5-yl)amidophenyl)-2,4-pyrimidinediamine [II-21] | 41700 nM | 698 nM
Cc1ccc(Nc2ncc(F)c(Nc3ccc(OC4CCN(C)C4)cc3)n2)cc1S(N)(=O)=O (stereo not shown) [II-10, N2-(3-Aminosulfonyl-4-methylphenyl)-5-fluoro-N4-(N-methylpyrrolidin-3-yloxyphenyl)-2,4-pyrimidinediamine] | 1400 nM | 369 nM
CCN(CC)CCNS(=O)(=O)c1ccc(Nc2ncc(F)c(Nc3cccc(OCc4nc(C)no4)c3)n2)cc1 [Compound I-256, N2-[4-(2-N,N-Diethylaminoethyl)aminosulfonylphenyl)-5-fluoro-N4-[3-(3-methyl-1,2,4-oxadiazol-5-yl)methyleneoxyphenyl]-2,4-pyrimidinediamine] | 15900 nM | 282 nM
CCN(CC)CCNS(=O)(=O)c1ccc(Nc2ncc(F)c(Nc3ccc(OCc4csc(C)n4)cc3)n2)cc1 [Compound I-284, N2-[4-(2-N,N-Diethylaminoethyl)aminosulfonylphenyl)-5-fluoro-N4-[4-(2-methylthizol-4-yl)methyleneoxyphenyl]-2,4-pyrimidinediamine] | 1550 nM | 136 nM
Cc1nc(COc2ccc(Nc3nc(Nc4ccc(C)c(S(N)(=O)=O)c4)ncc3F)cc2)cs1 [Compound I-280, N2-(3-Aminosulfonyl-4-methylphenyl)-5-fluoro-N4-[4-(2-methylthiazol-4-yl)methyleneoxyphenyl]-2,4-pyrimidinediamine] | 1460 nM | 145 nM
CN1CCN(S(=O)(=O)c2cccc(Nc3ncc(F)c(Nc4ccc(OCC#N)cc4)n3)c2)CC1 [Compound I-19, N4-(4-Cyanomethoxy)phenyl-5-fluoro-N2-[3-(4-methylpiperazin-1-yl)sulfonyl]phenyl-2,4-pyrimidinediamine] | 10100 nM | 509 nM
COc1cc(Nc2ncc(F)c(Nc3cc(C)c(OCC#N)c(C)c3)n2)ccc1S(N)(=O)=O [Compound I-32, N2-(4-Aminosulfonyl-3-methoxy)phenyl-N4-(4-cyanomethoxy-3,5-dimethyl)phenyl-5-fluoro-2,4-pyrimidinediamine] | 1970 nM | 161 nM
Cc1noc(CCc2ccc(Nc3nc(Nc4ccc(F)c(S(N)(=O)=O)c4)ncc3F)cc2)n1 [Compound I-267, N2-(3-Aminosulfonyl-4-fluorophenyl)-5-fluoro-N4-[4-(3-methyl-1,2,4-oxadiazol-5-yl)ethylenephenyl]-2,4-pyrimidinediamine] | 5070 nM | 328 nM

Molecules with a lower IC50 [1], results first:

IC50 [1] | IC50 [2] | Molecule
585 nM | 140 nM | N#CCCc1ccc(Nc2nc(Nc3cccc(S(N)(=O)=O)c3)ncc2F)cc1 [III-14, N2-(3-aminosulfonylphenyl)-N4-[4-(cyanoethylene)phenyl]-5-fluoro-2,4-pyrimidinediamine]
424 nM | 37.8 nM | Cc1cc(Nc2nc(Nc3cccc(S(N)(=O)=O)c3)ncc2F)cc(C)c1OCC#N [Compound I-26, N2-(3-Aminosulfonyl)phenyl-N4-(4-cyanomethoxy-3,5-dimethyl)phenyl-5-fluoro-2,4-pyrimidinediamine]
588 nM | 31.6 nM | Cc1cc(COc2ccc(Nc3nc(Nc4ccc(C)c(S(N)(=O)=O)c4)ncc3F)cc2)no1 [Compound I-219, N2-(3-Aminosulfonyl-4-methylphenyl)-5-fluoro-N4-[4-(5-methylisoxazol-3-yl)methyleneoxyphenyl]-2,4-pyrimidinediamine]
897 nM | 96.5 nM | N#CCOc1ccc(Nc2nc(Nc3ccc(F)c(S(N)(=O)=O)c3)ncc2F)cc1 [Compound I-33, N2-(3-Aminosulfonyl-4-fluoro)phenyl-N4-(4-cyanomethoxy)phenyl-5-fluoro-2,4-pyrimidinediamine]
339 nM | 36.7 nM | Cc1ccc(Nc2ncc(F)c(Nc3ccc(OCC#N)cc3)n2)cc1S(N)(=O)=O [Compound I-20, N2-(3-Aminosulfonyl-4-methyl)phenyl-N4-(4-cyanomethoxy)phenyl-5-fluoro-2,4-pyrimidinediamine]
840 nM | 33.1 nM | Cc1cc(COc2ccc(Nc3nc(Nc4ccc(C)c(S(N)(=O)=O)c4)ncc3F)cc2F)no1 [Compound I-222, N2-(3-Aminosulfonyl-4-methylphenyl)-5-fluoro-N4-[3-fluoro-4-(5-methylisoxazol-3-yl)methyleneoxyphenyl]-2,4-pyrimidinediamine]
534 nM | 61.9 nM | Cc1ccc(Nc2ncc(F)c(Nc3cc(C)c(OCC#N)c(C)c3)n2)cc1S(N)(=O)=O [Compound I-27, N2-(3-Aminosulfonyl-4-methyl)phenyl-N4-(4-cyanomethoxy-3,5-dimethyl)phenyl-5-fluoro-2,4-pyrimidinediamine]
1210 nM | 88 nM | Cc1cc(COc2ccc(Nc3nc(Nc4cc(Cl)c(C)c(S(N)(=O)=O)c4)ncc3F)cc2F)no1 [Compound I-223, N2-(3-Aminosulfonyl-5-chloro-4-methylphenyl)-5-fluoro-N4-[3-fluoro-4-(5-methylisoxazol-3-yl)methyleneoxyphenyl]-2,4-pyrimidinediamine]
959 nM | 145 nM | Cc1noc(COc2ccc(Nc3nc(Nc4cccc(S(=O)(=O)NCc5oc(=O)oc5C)c4)ncc3F)cc2)n1 [Compound I-257, N2-{3-[(N-5-Methyl-1,3-dioxolene-2-one-4-yl)methylene]aminosulfonylphenyl}-5-fluoro-N4-[4-(3-methyl-1,2,4-oxadiazol-5-yl)methyleneoxyphenyl]-2,4-pyrimidinediamine]
494 nM | 36.1 nM | Cc1cc(COc2ccc(Nc3nc(Nc4cc(C)c(F)c(S(N)(=O)=O)c4)ncc3F)cc2F)no1 [Compound I-224, N2-(3-Aminosulfonyl-4-fluoro-5-methylphenyl)-5-fluoro-N4-[3-fluoro-4-(5-methylisoxazol-3-yl)methyleneoxyphenyl]-2,4-pyrimidinediamine]
315 nM | 27.9 nM | Cc1noc(COc2ccc(Nc3nc(Nc4ccc(C)c(S(N)(=O)=O)c4)ncc3F)cc2)n1 [Compound I-259, N2-(3-Aminosulfonyl-4-methylphenyl)-5-fluoro-N4-[4-(3-methyl-1,2,4-oxadiazol-5-yl)methyleneoxyphenyl]-2,4-pyrimidinediamine]
324 nM | 28 nM | Cc1noc(COc2ccc(Nc3nc(Nc4cccc(S(N)(=O)=O)c4)ncc3F)cc2)n1 [Compound I-258, N2-(3-Aminosulfonylphenyl)-5-fluoro-N4-[4-(3-methyl-1,2,4-oxadiazol-5-yl)methyleneoxyphenyl]-2,4-pyrimidinediamine]
1090 nM | 167 nM | N2-[3-Aminosulfonyl-4-(4-methylpiperazin-1-yl)phenyl]-5-fluoro-N4-[2-fluoro-4-(5-methylisoxazol-3-yl)methyleneoxyphenyl]-2,4-pyrimidinediamine [Compound I-251]
1130 nM | 165 nM | Cc1cc(COc2ccc(Nc3nc(Nc4cccc(S(N)(=O)=O)c4)ncc3F)cc2C)no1 [Compound I-238, N2-(3-Aminosulfonylphenyl)-5-fluoro-N4-[3-methyl-4-(5-methylisoxazol-3-yl)methyleneoxyphenyl]-2,4-pyrimidinediamine]
478 nM | 25 nM | Cc1cc(COc2ccc(Nc3nc(Nc4cc(C)c(F)c(S(N)(=O)=O)c4)ncc3F)cc2)no1 [Compound I-217, N2-(3-Aminosulfonyl-4-fluoro-5-methylphenyl)-5-fluoro-N4-[4-(5-methylisoxazol-3-yl)methyleneoxyphenyl]-2,4-pyrimidinediamine]
